Test results: ChEMBL document CHEMBL5385904, “Design, synthesis and biological evaluation of seco-DSP/DCK derivatives reversing P-glycoprotein-mediated paclitaxel resistance in A2780/T cells” (Eur J Med Chem, 2023)

Assays:
A2780/Taxol [1] = assay: Cytotoxicity against human A2780/Taxol cells assessed survival rate at 10 uM incubated for 48 hrs by MTT assay; type: functional
A2780/Taxol [2] = assay: Reversal of multi-drug resistance in human A2780/Taxol cells incubated for 48 hrs by MTT assay; type: functional, cell-based
A2780/Taxol [3] = assay: Reversal of multidrug resistance in human A2780/Taxol Cells assessed as reversal fold of paclitaxel IC50 at 10 uM incubated for 48 hrs by MTT assay; type: functional
[4] = Stability in human microsomal fraction preincubated for 10 mins followed by NADPH addition and measured upto 60 mins by LC-MS/MS analysis; type: ADME, microsomes, Microsome; settings: time < 70 min, read-out: Stability

Row | Compound | Cell survival rate (A2780/Taxol [1]) [%] | IC50 (A2780/Taxol [2]) [µM] | fold change (FC) (A2780/Taxol [3]) | remaining at 1 h [4] [%]
1 | COc1cc(CC(=O)OCc2c(OC(C)C)ccc3c(C)c(Cc4ccc(F)cc4)c(=O)oc23)cc(OC)c1OC | 92 | 0.021 | 206 | 
2 | COc1cc(CC(=O)OCc2c(OC(C)C)ccc3c(C)c(Cc4ccc(C(F)(F)F)cc4)c(=O)oc23)cc(OC)c1OC | 81 | 0.094 | 47 | 
3 | Cc1c(Cc2ccc(C(F)(F)F)cc2)c(=O)oc2c(COC(=O)/C=C/c3ccccc3)c(OC(C)C)ccc12 | 99 | 0.401 | 11 | 
4 | CC(=O)O[C@H]1C(=O)[C@@]2(C)[C@H]([C@H](OC(=O)c3ccccc3)[C@]3(O)C[C@H](OC(=O)[C@H](O)[C@@H](NC(=O)c4ccccc4)c4ccccc4)C(C)=C1C3(C)C)[C@]1(OC(C)=O)CO[C@@H]1C[C@@H]2O [PACLITAXEL] |  | 4.42 | 1 | 
5 | CCOc1ccc2c(C)c(Cc3ccc(F)cc3)c(=O)oc2c1COC(=O)/C=C/c1ccc(OC)cc1 | 92 | 0.34 | 13 | 
6 | CCc1c(C)c2ccc(OC(C)C)c(COC(=O)Cc3cc(OC)c(OC)c(OC)c3)c2oc1=O | 93 | 0.069 | 64 | 
7 | COc1cc(CC(=O)OCc2c(OC(C)C)ccc3c(C)c(CCc4ccccc4)c(=O)oc23)cc(OC)c1OC | 93 | 0.088 | 50 | 
8 | Cc1c(Cc2ccccc2)c(=O)oc2c(COC(=O)Cc3ccc(F)cc3)c(OC(C)C)ccc12 | 95 | 0.067 | 66 | 
9 | Cc1cc(=O)oc2c(CNC(=O)/C=C/c3ccccc3)c(OC(C)C)ccc12 | 87 | 0.294 | 15 | 
10 | COc1cc(CC(=O)OCc2c(OC(C)C)ccc3c(C)c(Cc4ccccc4F)c(=O)oc23)cc(OC)c1OC | 98 | 0.073 | 60 | 
11 | COc1cc(CC(=O)OCc2c(OC(C)C)ccc3c(C)c(Cc4cccc(F)c4)c(=O)oc23)cc(OC)c1OC | 94 | 0.086 | 51 | 
12 | Cc1c(Cc2ccc(F)cc2)c(=O)oc2c(COC(=O)/C=C/c3ccccc3)c(OC(C)C)ccc12 | 90 | 0.294 | 15 | 
13 | CCOc1ccc2c(=O)cc(CC)oc2c1COC(=O)/C=C/c1ccc(OC)cc1 | 52 |  |  | 
14 | CCOc1ccc2c(C)c(Cc3ccc(OC)cc3)c(=O)oc2c1COC(=O)/C=C/c1ccc(OC)cc1 | 90 | 0.491 | 9 | 
15 | COc1ccc(/C=C/C(=O)OCc2c(OC(C)C)ccc3c(C)c(Cc4ccc(C(F)(F)F)cc4)c(=O)oc23)cc1 | 94 | 0.631 | 7 | 
16 | COc1cc(CC(=O)OCc2c(OC(C)C)ccc3c(C)c(-c4ccccc4)c(=O)oc23)cc(OC)c1OC | 97 | 0.043 | 101 | 
17 | Cc1c(Cc2ccccc2)c(=O)oc2c(COC(=O)c3ccc(F)cc3)c(OC(C)C)ccc12 | 82 | 0.086 | 51 | 
18 | COc1cc(CCC(=O)OCc2c(OC(C)C)ccc3c(C)c(Cc4ccccc4)c(=O)oc23)cc(OC)c1OC | 90 | 0.053 | 82 | 
19 | COc1cc(C(=O)OCc2c(OC(C)C)ccc3c(C)c(Cc4ccccc4)c(=O)oc23)cc(OC)c1OC | 91 | 0.085 | 52 | 
20 | Cc1c(Cc2ccccc2)c(=O)oc2c(COC(=O)c3ccccc3)c(OC(C)C)ccc12 | 81 | 0.062 | 71 | 
21 | CCc1cc(=O)c2ccc(OC(C)C)c(CNC(=O)/C=C/c3ccc(OC)cc3)c2o1 | 79 | 0.031 | 142 | 29.4
22 | CCc1cc(=O)c2ccc(OC(C)C)c(CNC(=O)Cc3cc(OC)c(OC)c(OC)c3)c2o1 | 97 | 0.02 | 224 | 

Row | Compound | Cell survival rate (A2780/Taxol [1]) [%] | IC50 (A2780/Taxol [2]) [µM] | fold change (FC) (A2780/Taxol [3]) | remaining at 1 h [4] [%]
23 | COc1ccc(/C=C/C(=O)OCc2c(OC(C)C)ccc3c(C)c(Cc4ccc(OC)cc4)c(=O)oc23)cc1 | 83 | 0.491 | 9 | 
24 | COc1ccccc1Cc1c(C)c2ccc(OC(C)C)c(COC(=O)Cc3cc(OC)c(OC)c(OC)c3)c2oc1=O | 92 | 0.069 | 64 | 
25 | CCc1cc(=O)c2ccc(OC(C)C)c(CNC(=O)/C=C/c3ccccc3)c2o1 | 74 | 0.192 | 23 | 
26 | COc1cc(NC(=O)c2c(OC(C)C)ccc3c(C)cc(=O)oc23)cc(OC)c1OC | 88 | 1.59 | 2.8 | 
27 | COc1cc(C(=O)OCc2c(OC(C)C)ccc3c(C)c(CCc4ccccc4)c(=O)oc23)cc(OC)c1OC | 91 | 0.031 | 140 | 
28 | COc1ccc(Cc2c(C)c3ccc(OC(C)C)c(COC(=O)/C=C/c4ccccc4)c3oc2=O)cc1 | 94 | 3.4 | 1.3 | 
29 | COc1cccc(Cc2c(C)c3ccc(OC(C)C)c(COC(=O)Cc4cc(OC)c(OC)c(OC)c4)c3oc2=O)c1 | 93 | 0.073 | 60 | 
30 | COc1ccc(/C=C/C(=O)OCc2c(OC(C)C)ccc3c(C)c(Cc4ccc(F)cc4)c(=O)oc23)cc1 | 89 | 0.491 | 9 | 
31 | COc1cc(CC(=O)NCc2c(OC(C)C)ccc3c(C)cc(=O)oc23)cc(OC)c1OC | 90 | 1.58 | 2.8 | 
32 | COc1cc(CC(=O)OCc2c(OC(C)C)ccc3c(C)c(C)c(=O)oc23)cc(OC)c1OC | 94 | 0.055 | 80 | 
33 | Cc1cc(=O)oc2c(C(=O)Nc3ccc(OC(F)(F)F)cc3)c(OC(C)C)ccc12 | 60 | 0.315 | 14 | 
34 | CCc1cc(=O)c2ccc(OC(C)C)c(CNc3cc(OC)c(OC)c(OC)c3)c2o1 | 86 | 0.143 | 31 | 
35 | COc1ccc(Cc2c(C)c3ccc(OC(C)C)c(COC(=O)Cc4cc(OC)c(OC)c(OC)c4)c3oc2=O)cc1 | 94 | 0.094 | 47 | 
36 | CCOc1ccc2c(C)c(Cc3ccccc3)c(=O)oc2c1COC(=O)/C=C/c1ccc(OC)cc1 | 74 | 0.276 | 16 | 
37 | COc1cc(CC(=O)OCc2c(OC(C)C)ccc3c(C)c(Cc4ccc(C#N)cc4)c(=O)oc23)cc(OC)c1OC | 81 | 0.088 | 50 | 
38 | Cc1c(Cc2ccc(C#N)cc2)c(=O)oc2c(COC(=O)/C=C/c3ccccc3)c(OC(C)C)ccc12 | 91 | 0.21 | 21 | 
39 | COc1cc(CC(=O)OCc2c(OC(C)C)ccc3c(C)c(C(C)C)c(=O)oc23)cc(OC)c1OC | 98 | 0.036 | 122 | 
40 | Cc1cc(=O)oc2c(C(=O)Nc3ccccc3)c(OC(C)C)ccc12 | 92 | 2.76 | 1.6 | 
41 | Cc1c(Cc2ccccc2)c(=O)oc2c(COC(=O)Cc3ccccc3)c(OC(C)C)ccc12 | 83 | 0.076 | 58 | 
42 | Cc1c(Cc2ccccc2)c(=O)oc2c(COC(=O)/C=C/c3ccccc3)c(OC(C)C)ccc12 | 95 | 0.276 | 16 | 
43 | COc1ccc(/C=C/C(=O)OCc2c(OC(C)C)ccc3c(C)c(Cc4ccccc4)c(=O)oc23)cc1 | 86 | 0.233 | 19 | 
44 | COc1cc(CC(=O)OCc2c(OC(C)C)ccc3c(C)cc(=O)oc23)cc(OC)c1OC | 94 | 0.107 | 41 | 
